Laboratory results as given in patent US9133181B2, “Substituted 6-(4-hydroxy-phenyl)-1H-pyrazolo[3,4-b]pyridine derivatives as kinase inhibitors” (SANOFI, priority 2012, dated 2015).

Biological target: T1, human full-length recombinant PKC βII (Homo sapiens, UniProt P05771)
T1 construct: Active human full-length recombinant PKC βII; purchased Invitrogen GmbH, Darmstadt, Germany
Assay: Determination of PKC βII inhibition (Caliper mobility shift kinase assay)
Type: biochemical
Settings: final compound concentration 1.14 μM (±0.15 μM); 60 min incubation at 32° C.
Protocol: Determination of PKC βII Inhibition
PKC βII inhibition was determined according to the following protocol:
Active human full-length recombinant PKC βII and the peptide substrate, Fluorescein-RFARKGSLRQKNV, were purchased from Invitrogen GmbH, Darmstadt, Germany. Adenosine-5′-triphosphate (ATP), bovine serum albumine (BSA), dimethylsulphoxide (DMSO), 4-(2-hydroxyethyl)piperazine-1-ethanesulfonic acid (Hepes), Triton X-100, 1,2-Dioleoyl-sn-glycerol (DAG), L-α-Phosphatidyl-L-serine (PS), calcium chloride (CaCl2), and Pluronic F-68 were purchased from Sigma-Aldrich, Munich, Germany. Magnesium chloride, 1 M sodium hydroxide solution, 1M hydrochloric acid solution and EDTA were obtained from Merck Biosciences, Darmstadt, Germany.
Test compounds were diluted to three times the test concentration in buffer 1 (30 mM Hepes-NaOH, pH 7.4, 0.01% Pluronic F-68 and 3% (v/v) DMSO). The […] enzyme was diluted to a concentration of 30 ng/ml in buffer 2 (30 mM Hepes-NaOH, pH 7.4, 15 mM MgCl2, 150 μM CaCl2, 150 μg/ml PS, 60 μg/ml DAG, and 0.045% (w/v) Triton X-100). The peptide substrate and ATP were diluted to concentrations of 3 μM and 120 μM, respectively, in buffer 2. Two μl of the compound solution were mixed with 2 μl of the diluted enzyme in a 384-well small volume microtiter plate (Greiner, Bio-One, Frickenhausen, Germany), and the kinase reaction was initiated by addition of 2 μl of the solution containing peptide substrate and ATP. After 60 min incubation at 32° C., the reaction was stopped by addition of 20 μl of a solution containing 130 mM Hepes-NaOH, pH 7.4, 0.0195% (v/v) Brij-35, 6.5 mM EDTA, 0.13% chip coating reagent 3 (Caliper Lifescience Inc, Hopkinton, Mass.) and 6.5% (v/v) DMSO. Phosphorylation of the substrate peptide was then detected on a Caliper 3000 instrument essentially as described by Pommereau et al (J. Biomol. Screening 2004, 9(5), 409-416). Separation conditions were as follows: Pressure −0.8 psi, upstream voltage −3000 V, downstream voltage −800 V. Positive controls (buffer 1 instead of compound) and negative controls (buffer 1 instead of compound and buffer 2 instead of kinase solution) were run in parallel on each plate. Fractional turnover (R) was determined as the height of the peak of the phosphorylated peptide product divided by the sum of the unphosphorylated substrate and phosphorylated product peak heights. Percent-inhibition values for the test compounds were determined using the formula % Inhibition=100*(1−(Rcompound−Rnegative control)/(Rpositive control−Rnegative control).
In the following table % inhibition values observed with example compounds at a final concentration of 1.14 μM (±0.15 μM) are listed: […]

T1 sequence (P05771 1-673 isoform P05771-2): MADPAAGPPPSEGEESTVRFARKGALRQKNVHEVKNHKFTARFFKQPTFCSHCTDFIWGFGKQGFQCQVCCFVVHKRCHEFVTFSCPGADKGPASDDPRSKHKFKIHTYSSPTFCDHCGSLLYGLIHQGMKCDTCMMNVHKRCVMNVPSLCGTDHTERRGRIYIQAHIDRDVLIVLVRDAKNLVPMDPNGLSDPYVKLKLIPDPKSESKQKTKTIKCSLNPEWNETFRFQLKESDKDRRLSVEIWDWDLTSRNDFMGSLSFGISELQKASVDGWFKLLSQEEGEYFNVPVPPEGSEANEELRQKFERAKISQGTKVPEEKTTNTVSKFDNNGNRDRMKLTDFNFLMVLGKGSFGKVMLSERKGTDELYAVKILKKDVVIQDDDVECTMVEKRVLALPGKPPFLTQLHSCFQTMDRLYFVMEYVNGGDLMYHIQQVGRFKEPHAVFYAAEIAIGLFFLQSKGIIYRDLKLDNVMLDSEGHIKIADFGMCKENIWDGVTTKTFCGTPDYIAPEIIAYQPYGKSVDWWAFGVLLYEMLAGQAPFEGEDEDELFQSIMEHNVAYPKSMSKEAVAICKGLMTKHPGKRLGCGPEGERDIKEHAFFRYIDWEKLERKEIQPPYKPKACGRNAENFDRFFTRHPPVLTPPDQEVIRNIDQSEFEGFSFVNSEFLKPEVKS

| inhibition at 1.14 µM [%] | SMILES |
| --- | --- |
| 96 | Cc1n[nH]c2nc(-c3ccc(O)cc3F)cc(CN3CC(C)(C)N(CC4CCOCC4)CC3(C)C)c12 [Example 70, 3-Fluoro-4-{3-methyl-4-[2,2,5,5-tetramethyl-4-(tetrahydro-pyran-4-ylmethyl)-piperazin-1-ylmethyl]-1H-pyrazolo[3,4-b]pyridin-6-yl}-phenol] |
| 98 | Cc1n[nH]c2nc(-c3ccc(O)cc3F)cc(CN3CC4(CCCC4)N(C)CC3(C)C)c12 [Example 71, 3-Fluoro-4-[3-methyl-4-(6,8,8-trimethyl-6,9-diaza-spiro[4.5]dec-9-ylmethyl)-1H-pyrazolo[3,4-b]pyridin-6-yl]-phenol] |
| 100 | Cc1n[nH]c2nc(-c3ccc(O)cc3F)cc(CN3CC(C)(C)N(CCO)CC3(C)C)c12 [Example 72, 3-Fluoro-4-{4-[4-(2-hydroxy-ethyl)-2,2,5,5-tetramethyl-piperazin-1-ylmethyl]-3-methyl-1H-pyrazolo[3,4-b]pyridin-6-yl}-phenol] |
| 97 | Cc1n[nH]c2nc(-c3ccc(O)cc3F)cc(CN3CC(C)(C)N(C[C@H](O)CO)CC3(C)C)c12 [Example 73, (S)-3-{4-[6-(2-Fluoro-4-hydroxy-phenyl)-3-methyl-1H-pyrazolo[3,4-b]pyridin-4-ylmethyl]-2,2,5,5-tetramethyl-piperazin-1-yl}-propane-1,2-diol] |
| 95 | COC(=O)CN1CC(C)(C)N(Cc2cc(-c3ccc(O)cc3F)nc3[nH]nc(C)c23)CC1(C)C [Example 74, {4-[6-(2-Fluoro-4-hydroxy-phenyl)-3-methyl-1H-pyrazolo[3,4-b]pyridin-4-ylmethyl]-2,2,5,5-tetramethyl-piperazin-1-yl}-acetic acid methyl ester] |
| 96 | COCC(=O)N1CC(C)(C)N(Cc2cc(-c3ccc(O)cc3F)nc3[nH]nc(C)c23)CC1(C)C [Example 75, 1-{4-[6-(2-Fluoro-4-hydroxy-phenyl)-3-methyl-1H-pyrazolo[3,4-b]pyridin-4-ylmethyl]-2,2,5,5-tetramethyl-piperazin-1-yl}-2-methoxy-ethanone] |
| 95 | COCCC(=O)N1CC(C)(C)N(Cc2cc(-c3ccc(O)cc3F)nc3[nH]nc(C)c23)CC1(C)C [Example 76, 1-{4-[6-(2-Fluoro-4-hydroxy-phenyl)-3-methyl-1H-pyrazolo[3,4-b]pyridin-4-ylmethyl]-2,2,5,5-tetramethyl-piperazin-1-yl}-3-methoxy-propan-1-one] |
| 98 | Cc1n[nH]c2nc(-c3ccc(O)cc3F)cc(CN3CC(C)(C)N(C(=O)C4CCOC4)CC3(C)C)c12 (stereo not shown) [Example 77, {4-[6-(2-Fluoro-4-hydroxy-phenyl)-3-methyl-1H-pyrazolo[3,4-b]pyridin-4-ylmethyl]-2,2,5,5-tetramethyl-piperazin-1-yl}-(tetrahydro-furan-3-yl)-methanone] |
| 97 | CC(=O)N1CC(C)(C)N(Cc2cc(-c3ccc(O)cc3F)nc3[nH]nc(C)c23)CC1(C)C [Example 78, 1-{4-[6-(2-Fluoro-4-hydroxy-phenyl)-3-methyl-1H-pyrazolo[3,4-b]pyridin-4-ylmethyl]-2,2,5,5-tetramethyl-piperazin-1-yl}-ethanone] |
| 65 | COCC(=O)N1CCCN(Cc2cc(-c3ccc(O)cc3F)nc3[nH]nc(C)c23)CC1C (stereo not shown) [Example 79, 1-{4-[6-(2-Fluoro-4-hydroxy-phenyl)-3-methyl-1H-pyrazolo[3,4-b]pyridin-4-ylmethyl]-2-methyl-[1,4]diazepan-1-yl}-2-methoxy-ethanone] |
| 93 | Cc1n[nH]c2nc(-c3ccc(O)cc3F)cc(CN3CC(C)(C)N(C(=O)CO)CC3(C)C)c12 [Example 80, 1-{4-[6-(2-Fluoro-4-hydroxy-phenyl)-3-methyl-1H-pyrazolo[3,4-b]pyridin-4-ylmethyl]-2,2,5,5-tetramethyl-piperazin-1-yl}-2-hydroxy-ethanone] |

Further lines, the compound ahead of its results:

| SMILES | inhibition at 1.14 µM [%] |
| --- | --- |
| Cc1n[nH]c2nc(-c3ccc(O)cc3F)cc(CN3CC(C)(C)OCC3(C)C)c12 [Example 56, 3-Fluoro-4-[3-methyl-4-(2,2,5,5-tetramethyl-morpholin-4-ylmethyl)-1H-pyrazolo[3,4-b]pyridin-6-yl]-phenol] | 85 |
| CCC1(C)CN(Cc2cc(-c3ccc(O)cc3)nc3[nH]nc(C)c23)C(C)(C)CN1 (stereo not shown) [Example 57, 4-[4-(5-Ethyl-2,2,5-trimethyl-piperazin-1-ylmethyl)-3-methyl-1H-pyrazolo[3,4-b]pyridin-6-yl]-phenol] | 93 |
| CCC1(CC)CN(Cc2cc(-c3ccc(O)c(F)c3)nc3[nH]nc(C)c23)C(C)(C)CN1 [Example 58, 4-[4-(5,5-Diethyl-2,2-dimethyl-piperazin-1-ylmethyl)-3-methyl-1H-pyrazolo[3,4-b]pyridin-6-yl]-2-fluoro-phenol] | 91 |
| CCC1(CC)CN(Cc2cc(-c3ccc(O)cc3Cl)nc3[nH]nc(C)c23)C(C)(C)CN1 [Example 59, 3-Chloro-4-[4-(5,5-diethyl-2,2-dimethyl-piperazin-1-ylmethyl)-3-methyl-1H-pyrazolo[3,4-b]pyridin-6-yl]-phenol] | 96 |
| Cc1n[nH]c2nc(-c3ccc(O)cc3)cc(CNC3CCNCC3(C)C)c12 (stereo not shown) [Example 60, 4-{4-[(3,3-Dimethyl-piperidin-4-ylamino)-methyl]-3-methyl-1H-pyrazolo[3,4-b]pyridin-6-yl}-phenol] | 92 |
| Cc1n[nH]c2nc(-c3ccc(O)cc3)cc(CN3CC(C)N(Cc4cccnc4)CC3(C)C)c12 (stereo not shown) [Example 61, 4-[3-Methyl-4-(2,2,5-trimethyl-4-pyridin-3-ylmethyl-piperazin-1-ylmethyl)-1H-pyrazolo[3,4-b]pyridin-6-yl]-phenol] | 84 |
| Cc1n[nH]c2nc(-c3ccc(O)cc3)cc(CN3CC(C)N(CC4CCCO4)CC3(C)C)c12 (stereo not shown) [Example 62, 4-{3-Methyl-4-[2,2,5-trimethyl-4-(tetrahydro-furan-2-ylmethyl)-piperazin-1-ylmethyl]-1H-pyrazolo[3,4-b]pyridin-6-yl}-phenol] | 99 |
| COCCN1CC(C)(C)N(Cc2cc(-c3ccc(O)cc3)nc3[nH]nc(C)c23)CC1C (stereo not shown) [Example 63, 4-{4-[4-(2-Methoxy-ethyl)-2,2,5-trimethyl-piperazin-1-ylmethyl]-3-methyl-1H-pyrazolo[3,4-b]pyridin-6-yl}-phenol] | 97 |
| COCCCN1CC(C)(C)N(Cc2cc(-c3ccc(O)cc3)nc3[nH]nc(C)c23)CC1C (stereo not shown) [Example 64, 4-{4-[4-(3-Methoxy-propyl)-2,2,5-trimethyl-piperazin-1-ylmethyl]-3-methyl-1H-pyrazolo[3,4-b]pyridin-6-yl}-phenol] | 94 |
| Cc1n[nH]c2nc(-c3ccc(O)cc3F)cc(CN3CC(C)(C)N(CCC(F)(F)F)CC3(C)C)c12 [Example 65, 3-Fluoro-4-{3-methyl-4-[2,2,5,5-tetramethyl-4-(3,3,3-trifluoro-propyl)-piperazin-1-ylmethyl]-1H-pyrazolo[3,4-b]pyridin-6-yl}-phenol] | 88 |
| Cc1n[nH]c2nc(-c3ccc(O)cc3F)cc(CN3CC(C)(C)N(C)CC3(C)C)c12 [Example 66, 3-Fluoro-4-[3-methyl-4-(2,2,4,5,5-penta-methyl-piperazin-1-ylmethyl)-1H-pyrazolo[3,4-b]-pyridin-6-yl]-phenol] | 100 |
| COCCCN1CC(C)(C)N(Cc2cc(-c3ccc(O)cc3F)nc3[nH]nc(C)c23)CC1(C)C [Example 67, 3-Fluoro-4-{4-[4-(3-methoxy-propyl)-2,2,5,5-tetramethyl-piperazin-1-ylmethyl]-3-methyl-1H-pyrazolo[3,4-b]pyridin-6-yl}-phenol] | 103 |
| Cc1n[nH]c2nc(-c3ccc(O)cc3F)cc(CN3CC(C)(C)N(CCC4CCOCC4)CC3(C)C)c12 [Example 68, 3-Fluoro-4-(3-methyl-4-{2,2,5,5-tetramethyl-4-[2-(tetrahydro-pyran-4-yl)-ethyl]-piperazin-1-ylmethyl}-1H-pyrazolo[3,4-b]pyridin-6-yl)-phenol] | 101 |
| Cc1n[nH]c2nc(-c3ccc(O)cc3F)cc(CN3CC(C)(C)N(C[C@H]4COC(C)(C)O4)CC3(C)C)c12 [Example 69, 4-{4-[4-((S)-2,2-Dimethyl-[1,3]dioxolan-4-ylmethyl)-2,2,5,5-tetramethyl-piperazin-1-ylmethyl]-3-methyl-1H-pyrazolo[3,4-b]pyridin-6-yl}-3-fluoro-phenol] | 92 |
